Test results published in US8129340B2, “Inhibitors of protein phosphatase 1, GADD34 and protein phosphatase 1/GADD34 complex, preparation and uses thereof” (Institut Gustave Roussy, priority 2006, dated 2012).

Tests used:
CRT = assay: Inhibitory profile of CRT exposure (pre-incubation with inhibitors, immunocytofluorometry); type: cell-based; conditions: pre-incubation for 1 h
Experimental: FIG. 3S: Inhibitory profile of CRT exposure. Cells were treated with mitoxantrone or inhibitors of PP1/GADD34, after pre-incubation for 1 h with the indicated inhibitors of protein synthesis (cycloheximide), RNA synthesis (actinomycin D), microtubuli (nocodazol), or the actin cytoskeleton (latrunculin A). Then, CRT expression was determined by immunocytofluorometry. Results are means of triplicates±SD for one representative experiment out of three.

cell surface CRT = assay: Fluorescence detection of cell surface CRT on CT26 cells (cytofluorometry); type: cell-based, murine; conditions: agent alone
Experimental: FIG. 1SA, FIG. 1SB: Kinetics of CRT exposure. CT26 cells were treated with mitoxantrone for the indicated period, followed by immunofluorescence staining with a CRT-specific antibody and cytofluorometric analysis.
FIG. 2E: Correlation between CRT exposure and immunogenicity. The surface exposure of CRT was determined by immunofluorescence cytometry while gating on viable (propidium iodine-negative) cells (inserts) and was correlated with the immunogenicity of cell death (as determined in FIG. 1). CO, control; Tg, thapsigargin; Tu, tunicamycin.
FIG. 5E: Kinetics of CRT exposure determined by FACS analysis after incubation of cells with the indicated agents.
FIG. 5F-FIG. 5G: PP1/GADD34 inhibitors render cell immunogenic via CRT. Tumour cells were first transfected with a control siRNA or a CRT-specific siRNA and then treated in vitro with etoposide, alone or in combination with PP1/GADD34 inhibitors. […] The results represent the % of tumour free mice (comprising a total of 12 to 18 mice per group).
CT26 cells (on a glass slide or in 12-well plates) were first washed with FACS buffer (1×PBS, 5% fetus bovine serum, and 0.1% sodium azide) and then incubated with rabbit anti-mouse CRT antibody (1:100, Stressgen) in FACS buffer at 4° C. for 30 min. Cells reacted with anti-rabbit IgG (H+L) Alexa fluor 488-conjugates (1:500) in FACS buffer at 4° C. for 30 min. After washing three times with FACS buffer, surface CRT was detected by cytofluorometric analysis on a FACS Vantage. In some experiments, cells were fixed with 4% paraformaldehyde, counterstained with Hoechst (2 μM; Sigma), followed by fluorescence microscopic assessment with a Leica IRE2 microscope equipped with a DC300F camera.

ERp57 = assay: Flow cytometric detection of surface ERp57 on HeLa cells; type: cell-based, human; conditions: 150 nM, 2 h
Experimental: HeLa cells were treated with or without mitoxantrone (MTX, 1 μM) or tautomycin (Tau, 150 nM, Sigma) for 2 h. Cells were washed twice with PBS and fixed in PFA (4% w/v) for 5 min. HeLa cells were stained with an antibody against Erp57 (pAb from Abcam, ab10827) at 1:200 dilution or isotype control, in staining buffer (PBS, 1% FCS) for 30 min on ice, followed by washing. An anti-rabbit Alexa fluor 488 immunoglobulin conjugate (Molecular Probes-Invitrogen) diluted at 1:500 was added for an additional 30 min on ice before washing and analysed by flow cytometry (FACScan, Becton Dickinson). Propidium Iodide (50 μg/ml, Becton Dickinson) was added to the samples to label and exclude permeabilized (dead) cells. The CellQuest software was used to analyse the mean fluorescence intensity (MFI) and the percentage of ERp57 positive cells.

CT26 tumour cells = assay: Anti-tumour vaccination: dying treated CT26 cells injected in one flank, later challenge with live tumour cells; type: in vivo, BALB/c mice; conditions: without cell death inducer
CT26 tumours [1] = assay: Intratumoural treatment of established CT26 tumours in immunodeficient mice; type: in vivo, athymic nu/nu Balb/c mice; conditions: single intratumoural injection
CT26 tumours [2] = assay: Intratumoural treatment of established CT26 tumours in immunocompetent mice; type: in vivo, BALB/c mice (wild type)

Compound | effect on CRT exposure induced by anthracyclins and PP1/GADD34 inhibitors (CRT) | induction of CRT exposure at the cell surface (cell surface CRT) | surface exposure of ERp57, HeLa cells (ERp57) | induction of immunogenic cell death by the inhibitor alone (CT26 tumour cells) | therapeutic effect of single agent on established tumours, nu/nu mice (CT26 tumours [1]) | therapeutic effect combined with a cell death inducer (etoposide or mitomycin C), immunocompetent mice (CT26 tumours [2]; intratumoural injection with etoposide or mitomycin C) | therapeutic effect of single agent on established tumours, immunocompetent mice (CT26 tumours [2]; single intratumoural injection, 14-day-old CT26 tumours)
C/C1=C/C(=O)O[C@@H]2C[C@@H](CC[C@H](C)/C=C\C=C\CC1)O[C@@](O)([C@@H]1CSC(=O)N1)C2 [latrunculin A] | abolished |  |  |  |  |  | 
CO[C@H]([C@H](O)CC(=O)[C@@H](C)[C@@H](O)CC[C@@H](C)[C@@H]1O[C@]2(CC[C@@H](C)[C@H](CC[C@H](C)C(C)=O)O2)CC[C@@H]1C)[C@H](OC(=O)C[C@@H](O)C1=C(C)C(=O)OC1=O)C(C)C [tautomycin] |  | efficiently induced | stimulates the surface exposure or ERp57 | not sufficient to induce immunogenic cell death | no major therapeutic effect | stable disease or complete tumour regression | no major therapeutic effect
